# From patent US20220096468A1 (priority 2018, published 2022)
# Where “and” joins values, the source holds several entries; their conditions need not be identical. Equal values may be shown once. Read-outs that look alike come from different tables or passages of the source. Marks after values point to notes of the source that are not given here.
# Columns and labels:
# [1] = biological target: RdRp of the influenza virus (replicon activity) (Influenza A virus, UniProt P03431); assay: Influenza virus RdRp replicon reporter (Luc) assay in transduced 293T cells; type: cell-based, Influenza A/PR/8/34 (H1N1); conditions: for inhibition at 10 µM: read-out: Replicon inhibiting percentage; for IC50: read-out: T-705 50% inhibitory concentration
# [2] = test system: influenza virus (PR/8(H1N1)); assay: microbe, parasite or virus in culture; type: cell-based; conditions: for IC50: unidentified influenza virus, MDCK, MDCK cells
# 293T cells = assay: Amount of intracellular T-705RTP in 293T cells by LC/MS/MS; type: cell-based, human; conditions: 293T cells cultured 24 hours with T-705 and 6-mercaptopurine; FIG. 1
# Description: As described above, the pyrazine derivative or a salt thereof undergoes ribosyl phosphorylation in a cell. […] In order to examine whether or not the effect of 6-mercaptopurine to reinforce the activity of T-705, which was shown in Test Example 1, is caused by a change in the amount of T-705RTP, the amount of T-705RTP in 293T cells was measured under the treatment with 6-mercaptopurine.
# 293T cells (5×10^5 cells) seeded in each well of a 6-well plate were cultured with a vehicle (0.3% DMSO) or with 6-mercaptopurine, T-705, or the two drugs in various concentrations, under conditions of 5% CO2 at 37° C. for 24 hours.
# After completion of the culture, the reaction mixture was washed with 2 ml of PBS, and 300 μl of trypsin was then added thereto. The obtained mixture was left at rest at 37° C. for 5 minutes, and the cells were then removed. Subsequently, 400 μl of a trypsin inhibitor was added and suspended into the cells, and the cell suspension was then recovered in a 1.5-ml tube. The cell suspension was centrifuged at 1,000 rpm at 4° C. for 2 minutes (MX-301, TOMY), and 500 μl of a supernatant was then removed. […]
# The measurement of the number of cells and an LC/MS/MS analysis were carried out, and the amount of T-705RTP in each sample was then measured. […]
# [3] = test system: influenza virus (PR/8(H1N1)); type: cell-based
# Punta Toro virus = type: cell-based
# [4] = HEK-293T, T-705 10 μM, antimetabolite 0.08 μM
# [5] = HEK-293T, T-705 10 μM, antimetabolite 0.4 μM
# [6] = HEK-293T, T-705 10 μM, antimetabolite 2.0 μM
# [7] = HEK-293T, T-705 10 μM, antimetabolite 10.0 μM
# [8] = T-705 0 μM, antimetabolite 0.08 μM
# [9] = T-705 0 μM, antimetabolite 0.4 μM
# [10] = T-705 0 μM, antimetabolite 2.0 μM
# [11] = T-705 0 μM, antimetabolite 10.0 μM
# [12] = HEK-293T, single agent, without T-705, read-out: replicon inhibiting percentage
smiles,measurement,setting,value
"Sc1ncnc2nc[nH]c12 [6-Mercaptopurine, 6-mercaptopurine]",inhibition at 10 µM,[1]; [4],1.8%
same,inhibition at 10 µM,[1]; [5],3.7%
same,inhibition at 10 µM,[1]; [6],17%
same,inhibition at 10 µM,[1]; [7],38%
same,inhibition at 200 µM,"[1]; HEK-293T, single agent, <200 μM, without T-705, read-out: replicon inhibiting percentage",< 50%
same,Replicon inhibiting percentage,[1]; [8],−1.1%
same,Replicon inhibiting percentage,[1]; [9],1.5%
same,Replicon inhibiting percentage,[1]; [10],2.7%
same,Replicon inhibiting percentage,[1]; [11],8.2%
same,CPE inhibitory effects,"[2]; single agent, 10 μM",did not exhibit CPE inhibitory effects
same,amount of T-705RTP in the cells after the treatment of T-705,293T cells,increased
"Cn1cnc([N+](=O)[O-])c1Sc1ncnc2nc[nH]c12 [Azathioprine, azathioprine]",inhibition at 10 µM,[1]; [4],3.3%
same,inhibition at 10 µM,[1]; [5],1.3%
same,inhibition at 10 µM,[1]; [6],5.9%
same,inhibition at 10 µM,[1]; [7],26%
same,Replicon inhibiting percentage,[1]; [8],3.1%
same,Replicon inhibiting percentage,[1]; [9],−6.1%
same,Replicon inhibiting percentage,[1]; [10],3.4%
same,Replicon inhibiting percentage,[1]; [11],5.8%
"CN(Cc1cnc2nc(N)nc(N)c2n1)c1ccc(C(=O)N[C@@H](CCC(=O)O)C(=O)O)cc1 [Methotrexate, methotrexate]",inhibition at 10 µM,[1]; [4],11%
same,inhibition at 10 µM,[1]; [5],36%
same,inhibition at 10 µM,[1]; [6],34%
same,inhibition at 10 µM,[1]; [7],37%
same,inhibition at 20 µM,[1]; [12],< 50%
same,Replicon inhibiting percentage,[1]; [8],1.3%
same,Replicon inhibiting percentage,[1]; [9],18%
same,Replicon inhibiting percentage,[1]; [10],20%
same,Replicon inhibiting percentage,[1]; [11],19%
"C#CCC(Cc1cnc2nc(N)nc(N)c2n1)c1ccc(C(=O)N[C@@H](CCC(=O)O)C(=O)O)cc1 (some centres unmarked) [Pralatrexate, pralatrexate]",inhibition at 10 µM,[1]; [4],33%
same,inhibition at 10 µM,[1]; [5],33%
same,inhibition at 10 µM,[1]; [6],33%
same,inhibition at 10 µM,[1]; [7],35%
same,inhibition at 20 µM,[1]; [12],< 50%
same,Replicon inhibiting percentage,[1]; [8],24%
same,Replicon inhibiting percentage,[1]; [9],23%
same,Replicon inhibiting percentage,[1]; [10],2%
same,Replicon inhibiting percentage,[1]; [11],23%
NC(=O)c1ncn([C@@H]2O[C@H](CO)[C@@H](O)[C@H]2O)n1 [Ribavirin],minimum drug concentration which exhibits complete CPE suppression effect,[3]; used alone,30 µM
"NC(=O)c1nc(F)cnc1O [T-705, 6-Fluoro-3-hydroxy-2-pyrazinecarboxamide]",IC50,[1]; 6-Mercaptopurine concentration 0 μM,310 µM
same,IC50,[1]; 6-Mercaptopurine concentration 0.03 μM,303 µM
same,IC50,[1]; 6-Mercaptopurine concentration 0.09 μM,275 µM
same,IC50,[1]; 6-Mercaptopurine concentration 0.27 μM,219 µM
same,IC50,[1]; 6-Mercaptopurine concentration 0.82 μM,163 µM
same,IC50,[1]; 6-Mercaptopurine concentration 2.5 μM,67 µM
same,IC50,[1]; 6-Mercaptopurine concentration 7.4 μM,16 µM
same,IC50,[1]; 6-Mercaptopurine concentration 22 μM,2.3 µM
same,IC50,[1]; 6-Mercaptopurine concentration 67 μM,5.1 µM
same,IC50,[1]; 6-Mercaptopurine concentration 200 μM,23 µM
same,IC50,[1]; Methotrexate concentration 0 μM,314 µM
same,IC50,[1]; Methotrexate concentration 0.08 μM,46 µM
same,IC50,[1]; Methotrexate concentration 0.16 μM,43 µM
same,IC50,[1]; Methotrexate concentration 0.31 μM,41 µM
same,IC50,[1]; Methotrexate concentration 0.63 μM,47 µM
same,IC50,[1]; Methotrexate concentration 1.25 μM,40 µM
same,IC50,[1]; Methotrexate concentration 2.5 μM,38 µM
same,IC50,[1]; Methotrexate concentration 5 μM,39 µM
same,IC50,[1]; Methotrexate concentration 10 μM,28 µM
same,IC50,[1]; Methotrexate concentration 20 μM,30 µM
same,IC50,[1]; Pralatrexate concentration 0 μM,304 µM
same,IC50,[1]; Pralatrexate concentration 0.08 μM,32 µM
same,IC50,[1]; Pralatrexate concentration 0.16 μM,31 µM
same,IC50,[1]; Pralatrexate concentration 0.31 μM,25 µM
same,IC50,[1]; Pralatrexate concentration 0.63 μM,29 µM
same,IC50,[1]; Pralatrexate concentration 1.25 μM,18 µM
same,IC50,[1]; Pralatrexate concentration 2.5 μM,24 µM
same,IC50,[1]; Pralatrexate concentration 5 μM,25 µM
same,IC50,[1]; Pralatrexate concentration 10 μM,22 µM
same,IC50,[1]; Pralatrexate concentration 20 μM,23 µM
same,Replicon inhibiting percentage,"[1]; T-705 10 μM, antimetabolite 0 μM (T-705 alone)",0.58% and 2.2% and −1.8% and −2.3% and −7.8%
same,IC50,"[2]; read-out: T-705 50% concentration (50% inhibitory concentration of T-705), 6-Mercaptopurine concentration 0 μM",1.97 µM
same,IC50,"[2]; read-out: T-705 50% concentration (50% inhibitory concentration of T-705), 6-Mercaptopurine concentration 0.1 μM",1.83 µM
same,IC50,"[2]; read-out: T-705 50% concentration (50% inhibitory concentration of T-705), 6-Mercaptopurine concentration 0.3 μM",1.32 µM
same,IC50,"[2]; read-out: T-705 50% concentration (50% inhibitory concentration of T-705), 6-Mercaptopurine concentration 1 μM",0.77 µM
same,IC50,"[2]; read-out: T-705 50% concentration (50% inhibitory concentration of T-705), 6-Mercaptopurine concentration 3 μM",0.7 µM
same,IC50,"[2]; read-out: T-705 50% concentration (50% inhibitory concentration of T-705), 6-Mercaptopurine concentration 10 μM",0.38 µM
same,minimum drug concentration which exhibits complete CPE suppression effect,[3]; 6-mercaptopurine (10 μM) added,0.3 µM
same,minimum drug concentration which exhibits complete CPE suppression effect,[3]; 6-mercaptopurine (10 μM) and Ribavirin (3 μM) added,0.1 µM
same,minimum drug concentration which exhibits complete CPE suppression effect,[3]; used alone,3 µM
same,LogTCID50 value that shows the effect of reducing the virus amount with respect to the infection control,Punta Toro virus,1.0*
"NC(=O)c1nccnc1O [T-1105, 3-hydroxy-pyrazinecarboxamide]",LogTCID50 value that shows the effect of reducing the virus amount with respect to the infection control,Punta Toro virus,0.0
"Cn1c(=O)c2[nH]cnc2n(C)c1=O [Theophylline, theophylline]",LogTCID50 value that shows the effect of reducing the virus amount with respect to the infection control,Punta Toro virus,excellent effect of reducing the virus amount
Nc1nc2nc[nH]c2c(=S)[nH]1 [Thioguanine],inhibition at 10 µM,[1]; [4],-1.2%
same,inhibition at 10 µM,[1]; [6],14%
same,inhibition at 10 µM,[1]; [7],23%
same,Replicon inhibiting percentage,[1]; [8],−4.8%
same,Replicon inhibiting percentage,[1]; [9],−5.4%
same,Replicon inhibiting percentage,[1]; [10],−3.7%
same,Replicon inhibiting percentage,[1]; [11],12%
"NC(=O)c1csc([C@@H]2O[C@H](CO)[C@@H](O)[C@H]2O)n1 [Tiazofurin, tiazofurin]",LogTCID50 value that shows the effect of reducing the virus amount with respect to the infection control,Punta Toro virus,excellent effect of reducing the virus amount
